Results: article PMC9298260, “An Immunomodulatory Peptide Dendrimer Inspired from Glatiramer Acetate” (Angewandte Chemie (International Ed. in English), 2021)

Tests used:
[1] = system: IL-1β; experiment: IL-1β time profile in monocytes, RT-qPCR; format: cell-based, human; conditions: 50 µg/mL, inactivated and LPS (100 ng/mL) activated
Method: (§1) For closer characterization, we selected dendrimer 1 due to its smaller size and the presence of a cysteine residue that could be used for labelling. […] Furthermore, dendrimer 1 induced the release of IL‐1Ra both with and without LPS activation, but in the latter case the effect was detected only after 18 h incubation (Figure S5e/f).
(§2) Enriched monocytes after Percoll centrifugation (4×10^6 cells/3 mL well; 6-well plates) were preincubated for 1 h with or without compounds in RPMI-1640 medium supplemented with 10% heat-inactivated FBS, 50 μg/mL streptomycin, 50 U/mL penicillin, 2 mM L-glutamine, and then incubated for the indicated duration. After the incubation cells were collected, total RNA was extracted, reverse transcribed and analyzed by SYBR Green Master Mix. As a housekeeping gene was used Actin 5'-CAC TGG GGG CTA CTG GAC-3', 3'-AACATGGTGTTGGCAGAAACT-5', IL-1Ra 5'-TTCCTGTTCCATTCAGAGACG -3', 3'-CTTCTGGTTAACATCCCAGATTC -5'.
(§3) Figure S5. Dendrimer 1 affected mRNA levels in both LPS -activated and resting monocytes.
(§4) Monocytes 4 ×10^6 cells/3 mL in 6 well plates were incubated for indicated time with 50 µg/mL of 1 or without any treatment (NT) (a, c, e); or preincubated for 1 h with 100 ng/mL of LPS, and then with 50 µg/mL of 1 (b, d, f) or without any treatment (NT). […]

[2] = Circular dichroism spectroscopy; format: physicochemical; conditions: 100 μg/mL, 8 mM phosphate buffer pH 7.2/7.4
Method: In terms of stereochemistry, activity was lost with D‐enantiomers D‐1 and D‐4, similar to the inactivity reported for D‐enantiomeric GA.[2]
Circular dichroism (CD) experiments were measured on a Jasco J-715 Spectropolarimeter. All the experiments were performed using Hellma Suprasil 110-QS 0.1 cm cuvettes. For each peptide, the measurements were performed in phosphate buffer (PB, pH=7.2, 8 mM) and in the presence of 5 mM dodecylphosphocholine. The concentration of the peptides was 100.0 μg/mL and each sample was measured using one accumulation. The scan rate was 10 nm/min, pitch 0.5 nm, response 16 sec and bandwidth 1.0 nm. The nitrogen flow was kept >8.5 L/min. After each measurement, the cuvettes were washed successively with 1 M HCl, milli-Q H2O and PB buffer. The baseline was recorded under the same conditions and subtracted manually.
Figure S12. Circular dichroism spectra of GA, 1 and 4 (100 μg/mL) in 8 mM phosphate buffer at pH 7.4 (a) or in presence of 5 mM dodecylphosphocholine. Percentage of α-helix and β- sheet was processed by Dichroweb using the CONTIN analysis program and reference set 3.
(1 picture or pasted object on this page, not shown here)

[3] = system: IL-1Ra; experiment: IL-1Ra time profile / mRNA level in monocytes, RT-qPCR; format: cell-based, human; conditions: 50 µg/mL, with and without LPS, without LPS detected only after 18 h
Method: Figure 2 Cytokine level of IL‐1Ra in supernatants of primary human monocytes of healthy donors treated with peptide dendrimers, evaluated by ELISA (bars, left vertical axis) and mRNA levels (▴, right vertical axis). […] For mRNA levels evaluation, 2×10^6 cells 3 mL^−1 in 6 well plates were incubated with 50 μg mL^−1 dendrimer or GA for 18 h.
To assess the activity requirements for 1 and 4, we performed a structure–activity relationship (SAR) study on the level of induced IL‐1Ra release measured by immunoassay, which we verified in selected cases at the mRNA level by RT‐qPCR (Figure 2).
as §1
as §2, with “As a housekeeping gene was used Actin 5'-CAC TGG GGG CTA CTG GAC-3', 3'-AACATGGTGTTGGCAGAAACT-5', IL-1Ra 5'-TTCCTGTTCCATTCAGAGACG -3', 3'-CTTCTGGTTAACATCCCAGATTC -5'.” left out

[4] = system: TNF-α; experiment: TNF-α time profile in monocytes, RT-qPCR; format: cell-based, human; conditions: 50 µg/mL, LPS (100 ng/mL) activated
Method: as §1, §2, §3, §4

[5] = system: PBMC; format: cell-based, human; conditions: 100-12.5 µg/mL, 24 h, AlamarBlue further 12 h, fluorescence, normalized to untreated, n = 3
Excerpt: To assess the activity requirements for 1 and 4, we performed a structure–activity relationship (SAR) study on the level of induced IL‐1Ra release measured by immunoassay, which we verified in selected cases at the mRNA level by RT‐qPCR (Figure 2). […]
and centrifuged at the same conditions. PBMC collected from the interface were washed 3 times with supplemented RPMI.
Monocytes purification using magnetic beads labelling Isolation KIT II
Monocytes were purified from whole PBMC by negative selection, all procedures were carried out according to manufacturer protocol. Briefly, the non-monocytes were labeled with a cocktail of biotin-conjugated monoclonal antibodies as a primary labeling reagent. Then as a secondary labeling reagent were used anti-biotin microbeads. The mixture was run through the MACS column (MACS, Miltenyi Biotech) in the magnetic field of a MACS Separator (MACS, Miltenyi Biotech). […]
supplemented with 10% heat-inactivated FBS, 50 μg/mL streptomycin, 50 U/mL penicillin, 2 mM L-glutamine, and 5 μg/mL. […] Then, plates were measured on a Tecan Infinite M1000 Pro plate reader at λex= 560 nm and λem= 590 nm and value normalized to the […]
Figure S1. […] After incubation 50 µl of 50% AlamarBlue was added in supplemented medium for additional 12 h, then fluorescence was measured according to manufacture protocol. […]

Substance: (KA)8(KAK)4(KEKA)2KAKEAYCA-NH2 [compound 1, G3 peptide dendrimer]
- production of IL-1β [1]: significantly inhibited
- conformation by CD spectra [2]: unordered conformation
- release of IL-1Ra, time profile [3]: induced
- release of TNF-α [4]: inhibited
- viability of PBMC / cellular toxicity [5]: did not show measurable cellular toxicity
